Experimental data published in PubChem BioAssay (NCI).
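Where inhibition never reached the appropriate level, the endpoint shown equals the highest concentration tested. Otherwise, values were interpolated linearly from a five-concentration, 48-hour dose response in 96-well plates. Definition used: TGI = concentration required for complete inhibition of growth.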

Key:
Experiment in all cases: NCI anticancer screen, dose series, 48 h
SR leukemia = system: SR leukemia
KM12 colon = system: KM12 colon
CCRF-CEM leukemia = system: CCRF-CEM leukemia
EKVX NSCLC = system: EKVX NSCLC
RPMI-8226 leukemia = system: RPMI-8226 leukemia
T-47D breast = system: T-47D breast
MDA-MB-231 breast = system: MDA-MB-231 breast
CAKI-1 renal = system: CAKI-1 renal
NCI-H460 lung = system: NCI-H460 lung
HOP-62 NSCLC = system: HOP-62 NSCLC
M14 melanoma = system: M14 melanoma
K-562 leukemia = system: K-562 leukemia
NCI/ADR-RES ovarian = system: NCI/ADR-RES ovarian
OVCAR-5 ovarian = system: OVCAR-5 ovarian
SW-620 colon = system: SW-620 colon
SK-MEL-5 melanoma = system: SK-MEL-5 melanoma
786-0 renal = system: 786-0 renal
BT-549 breast = system: BT-549 breast
UACC-62 melanoma = system: UACC-62 melanoma
HOP-92 NSCLC = system: HOP-92 NSCLC
SK-MEL-28 melanoma = system: SK-MEL-28 melanoma
DU-145 prostate = system: DU-145 prostate
SNB-75 CNS = system: SNB-75 CNS
SK-OV-3 ovarian = system: SK-OV-3 ovarian
MALME-3M melanoma = system: MALME-3M melanoma
A549 NSCLC = system: A549 NSCLC
NCI-H23 lung = system: NCI-H23 lung
LOX IMVI melanoma = system: LOX IMVI melanoma
SN12C renal = system: SN12C renal
OVCAR-3 ovarian = system: OVCAR-3 ovarian
RXF 393 renal = system: RXF 393 renal
UACC-257 melanoma = system: UACC-257 melanoma
HCC-2998 colon = system: HCC-2998 colon
UO-31 renal = system: UO-31 renal
MCF7 breast = system: MCF7 breast
IGROV1 ovarian = system: IGROV1 ovarian
A498 renal = system: A498 renal
MDA-N = system: MDA-N
HS 578T breast = system: HS 578T breast
OVCAR-4 ovarian = system: OVCAR-4 ovarian
SK-MEL-2 melanoma = system: SK-MEL-2 melanoma
NCI-H522 lung = system: NCI-H522 lung
HT29 colon = system: HT29 colon
HL-60(TB) leukemia = system: HL-60(TB) leukemia
U251 CNS = system: U251 CNS
SF-295 CNS = system: SF-295 CNS
HCT-116 colon = system: HCT-116 colon
SF-268 CNS = system: SF-268 CNS
SNB-19 CNS = system: SNB-19 CNS
OVCAR-8 ovarian = system: OVCAR-8 ovarian
MDA-MB-435 = system: MDA-MB-435
TK-10 renal = system: TK-10 renal
HCT-15 colon = system: HCT-15 colon
ACHN renal = system: ACHN renal
NCI-H226 lung = system: NCI-H226 lung
MOLT-4 leukemia = system: MOLT-4 leukemia
SF-539 CNS = system: SF-539 CNS
COLO 205 colon = system: COLO 205 colon
PC-3 prostate = system: PC-3 prostate

For `O=P(O)(O)OC1OC(CO)C(O)C(O)C1O` (centres undefined), the TGI (SR leukemia) was greater than 100 µM, the TGI (KM12 colon) was greater than 100 µM and the TGI (CCRF-CEM leukemia) was greater than 100 µM. For the same molecule, the TGI (EKVX NSCLC) was greater than 100 µM, the TGI (RPMI-8226 leukemia) was greater than 100 µM and the TGI (T-47D breast) was greater than 100 µM. It also gave a TGI (MDA-MB-231 breast) greater than 100 µM, a TGI (CAKI-1 renal) greater than 100 µM and a TGI (NCI-H460 lung) greater than 100 µM. The TGI (HOP-62 NSCLC) was greater than 100 µM, the TGI (M14 melanoma) was greater than 100 µM and the TGI (K-562 leukemia) was greater than 100 µM. For the same molecule, the TGI (NCI/ADR-RES ovarian) was greater than 100 µM, the TGI (OVCAR-5 ovarian) was greater than 100 µM and the TGI (SW-620 colon) was greater than 100 µM. For the same molecule, the TGI (SK-MEL-5 melanoma) was greater than 100 µM, the TGI (786-0 renal) was greater than 100 µM and the TGI (BT-549 breast) was greater than 100 µM. For the same molecule, the TGI (UACC-62 melanoma) was greater than 100 µM, the TGI (HOP-92 NSCLC) was greater than 100 µM and the TGI (SK-MEL-28 melanoma) was greater than 100 µM. It also gave a TGI (DU-145 prostate) greater than 100 µM, a TGI (SNB-75 CNS) greater than 100 µM and a TGI (SK-OV-3 ovarian) greater than 100 µM. The TGI (MALME-3M melanoma) was greater than 100 µM, the TGI (A549 NSCLC) was greater than 100 µM and the TGI (NCI-H23 lung) was greater than 100 µM. It also gave a TGI (LOX IMVI melanoma) greater than 100 µM, a TGI (SN12C renal) greater than 100 µM and a TGI (OVCAR-3 ovarian) greater than 100 µM. For the same molecule, the TGI (RXF 393 renal) was greater than 100 µM, the TGI (UACC-257 melanoma) was greater than 100 µM and the TGI (HCC-2998 colon) was greater than 100 µM. For the same molecule, the TGI (UO-31 renal) was greater than 100 µM, the TGI (MCF7 breast) was greater than 100 µM and the TGI (IGROV1 ovarian) was greater than 100 µM. For the same molecule, the TGI (A498 renal) was greater than 100 µM, the TGI (MDA-N) was greater than 100 µM and the TGI (HS 578T breast) was greater than 100 µM. It also gave a TGI (OVCAR-4 ovarian) greater than 100 µM, a TGI (SK-MEL-2 melanoma) greater than 100 µM and a TGI (NCI-H522 lung) greater than 100 µM. The TGI (HT29 colon) was greater than 100 µM, the TGI (HL-60(TB) leukemia) was greater than 100 µM and the TGI (U251 CNS) was greater than 100 µM. It also gave a TGI (SF-295 CNS) greater than 100 µM, a TGI (HCT-116 colon) greater than 100 µM and a TGI (SF-268 CNS) greater than 100 µM. It also gave a TGI (SNB-19 CNS) greater than 100 µM, a TGI (OVCAR-8 ovarian) greater than 100 µM and a TGI (MDA-MB-435) greater than 100 µM. For the same molecule, the TGI (TK-10 renal) was greater than 100 µM, the TGI (HCT-15 colon) was greater than 100 µM and the TGI (ACHN renal) was greater than 100 µM.

Work on `CCOc1cc(C(c2c(O)c3ccccc3oc2=O)c2c(O)c3ccccc3oc2=O)ccc1OC` yielded a TGI (SR leukemia) greater than 100 µM, a TGI (KM12 colon) of 36.5 µM and a TGI (NCI-H226 lung) of 59.1 µM. The TGI (CCRF-CEM leukemia) was greater than 100 µM, the TGI (EKVX NSCLC) was 44.3 µM and the TGI (RPMI-8226 leukemia) was 89.9 µM. The TGI (T-47D breast) was 38.3 µM, the TGI (MOLT-4 leukemia) was 98.9 µM and the TGI (MDA-MB-231 breast) was 31.9 µM. The TGI (CAKI-1 renal) was 30.5 µM, the TGI (SF-539 CNS) was 42.6 µM and the TGI (HOP-62 NSCLC) was 39.9 µM. The TGI (M14 melanoma) was 38.9 µM, the TGI (K-562 leukemia) was greater than 100 µM and the TGI (NCI/ADR-RES ovarian) was 73.3 µM. The TGI (OVCAR-5 ovarian) was 40.1 µM, the TGI (SW-620 colon) was greater than 100 µM and the TGI (SK-MEL-5 melanoma) was 44.6 µM. The TGI (786-0 renal) was 40.1 µM, the TGI (BT-549 breast) was 41.4 µM and the TGI (UACC-62 melanoma) was 33.2 µM. It also gave a TGI (HOP-92 NSCLC) of 32.8 µM, a TGI (SK-MEL-28 melanoma) of 72.2 µM and a TGI (DU-145 prostate) of 37.6 µM. The TGI (SK-OV-3 ovarian) was 32.9 µM, the TGI (MALME-3M melanoma) was 34.8 µM and the TGI (A549 NSCLC) was greater than 100 µM. The TGI (NCI-H23 lung) was 52.6 µM, the TGI (LOX IMVI melanoma) was 45.8 µM and the TGI (COLO 205 colon) was 36.4 µM. The TGI (PC-3 prostate) was 33.3 µM, the TGI (SN12C renal) was 40.3 µM and the TGI (OVCAR-3 ovarian) was 33.3 µM. The TGI (UACC-257 melanoma) was 34.6 µM, the TGI (UO-31 renal) was 45.8 µM and the TGI (MCF7 breast) was 43.7 µM. It also gave a TGI (IGROV1 ovarian) of 32.7 µM, a TGI (A498 renal) of 38.9 µM and a TGI (MDA-N) of 36.6 µM. It also gave a TGI (HS 578T breast) of 77.5 µM, a TGI (OVCAR-4 ovarian) of 34.1 µM and a TGI (SK-MEL-2 melanoma) of 42.2 µM. For the same molecule, the TGI (NCI-H522 lung) was 36.3 µM, the TGI (HT29 colon) was 65.9 µM and the TGI (HL-60(TB) leukemia) was 52.4 µM. For the same molecule, the TGI (U251 CNS) was 29.5 µM, the TGI (SF-295 CNS) was 41.7 µM and the TGI (HCT-116 colon) was 37.9 µM. The TGI (SF-268 CNS) was 38.8 µM, the TGI (SNB-19 CNS) was 61.8 µM and the TGI (OVCAR-8 ovarian) was 42.4 µM. For the same molecule, the TGI (MDA-MB-435) was 32 µM, the TGI (TK-10 renal) was 32.1 µM and the TGI (HCT-15 colon) was 47.6 µM. For the same molecule, the TGI (ACHN renal) was 31.9 µM.
